Where “and” joins values, the source holds several entries; their conditions need not be identical. Equal values may be shown once.
Key:
[1] = system: E. histolytica; assay: E. histolytica viability, ATP luminescence (Cell titer glo); format: cell-based, Entamoeba histolytica; conditions: Entamoeba histolytica, 48 h
Summary of the method: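 E. histolytica strain B2-5 at 2.5x10^4 cells/ml was exposed to compound for 48 h at 37 °C under anaerobic conditions, with viability read as ATP luminescence (CellTiter-Glo). The primary screen used 25 μM in triplicate, and follow-up potency runs used 9–16-point ranges spanning 0.01–100 μM.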

[2] = system: Plasmodium falciparum; set-up: method as in PMID 35749989; conditions: cited from earlier work
[3] = system: human hepatocyte carcinoma HepG2 cells; assay: Cytotoxicity assay HepG2, resazurin reduction; format: cell-based
Description: Mammalian cell lines (J774 and HepG2) were passaged in RPMI media supplemented with MEM, Pen-Strep (1%) and 10% FCS. Cultures were kept at 37°C incubator with 5% CO2 in filter-cap flasks.
Murine macrophage cells (J774) and human hepatocyte carcinoma HepG2 cells were seeded at 0.5x10^5 cell/well in 384 well plates in triplicate, exposed to serial dilution of compounds, dispensed using an Echo 650 acoustic dispenser (Labcyte). After incubation for 72 h at 37°C, 5% CO2, cell viability was determined using fluorescence resazurin reduction assay (λEx: 550 nm; λEm: 590 nm).

Q: What does the source list for `CC[C@@H](C)[C@H](c1nc2ccccc2n1Cc1cn(-c2ccc(C(F)(F)F)cc2)nn1)N1C(=O)c2ccccc2C1=O` [PHT-39]?
A: viability at 2.5 µM ([1]; read-out: Residual viability, E.histolytica (2.5 µM)): 81.6 ± 12.6%; viability at 25 µM ([1]; read-out: Residual viability, E.histolytica (25 µM)): 44.5 ± 9.9%; Mitochondrial membrane potential, P. falciparum trophozoites ([2]; 3 h exposure at EC50 0.64 μM): collapse of the mitochondrial membrane potential; EC50 ([2]; read-out: EC50 Plasmodium falciparum intraerythrocyte stages): 640 nM and 600 nM; Selectivity ([3]; HepG2 cytotoxicity vs intramacrophage L. infantum): over 90 fold; EC50 ([3]; Homo sapiens, HepG2, 72 h, cytotoxicity, 72 h, read-out: EC50 (CT50) HepG2): > 100000 nM
